From PubChem BioAssay AID1259407 (Chemical Carcinogenesis Research Information System (CCRIS), 2018)
Calls of active or inactive are those of the source. The rule behind the calls is not given here.

Test system: CCRIS mutagenicity, Ames/micronucleus/aberration tests
Assay: CCRIS mutagenicity studies
[1] = Test System: AMES SALMONELLA TYPHIMURIUM, Strain/Indicator: TA98, Metabolic Activation: NONE, Method: PREINCUBATION
[2] = Test System: AMES SALMONELLA TYPHIMURIUM, Strain/Indicator: TA100, Metabolic Activation: NONE, Method: PREINCUBATION

c1cc2ccc3cccc4ccc(c1)c2c34
mutagenic call (End Point: IN VITRO MICRONUCLEUS, Test System: CHO CELLS, Metabolic Activation: RAT, LIVER, S-9, AROCLOR 1254): inactive; negative | mutagenic call (End Point: IN VITRO MICRONUCLEUS, Test System: V79 CELLS, Metabolic Activation: NONE): inactive; negative | mutagenic call (Test System: AMES SALMONELLA TYPHIMURIUM, Strain/Indicator: TA97, Metabolic Activation: NONE, Method: STANDARD PLATE): inactive; negative | mutagenic call (Test System: AMES SALMONELLA TYPHIMURIUM, Strain/Indicator: TA97, Metabolic Activation: RAT, LIVER, S-9, AROCLOR 1254, Method: STANDARD PLATE): active; positive | mutagenic call (Test System: AMES SALMONELLA TYPHIMURIUM, Strain/Indicator: TA97, Metabolic Activation: RAT, LIVER, S-9, PCB, Method: STANDARD PLATE): active; positive | mutagenic call (Test System: AMES SALMONELLA TYPHIMURIUM, Strain/Indicator: TA97A, Metabolic Activation: RAT, LIVER, S-9, AROCLOR 1254, Method: STANDARD PLATE): active; positive | mutagenic call [1]: inactive; negative | mutagenic call (Test System: AMES SALMONELLA TYPHIMURIUM, Strain/Indicator: TA98, Metabolic Activation: NONE, Method: STANDARD PLATE): inactive; negative | mutagenic call (Test System: AMES SALMONELLA TYPHIMURIUM, Strain/Indicator: TA98, Metabolic Activation: RAT, LIVER, S-9, AROCLOR 1254, Method: PREINCUBATION): inactive; negative | mutagenic call (Test System: AMES SALMONELLA TYPHIMURIUM, Strain/Indicator: TA98, Metabolic Activation: RAT, LIVER, S-9, AROCLOR 1254, Method: STANDARD PLATE): inactive; negative | mutagenic call (Test System: AMES SALMONELLA TYPHIMURIUM, Strain/Indicator: TA98, Metabolic Activation: RAT, LIVER, S-9, PCB, Method: STANDARD PLATE): active; positive | mutagenic call (Test System: AMES SALMONELLA TYPHIMURIUM, Strain/Indicator: TA100, Metabolic Activation: MOUSE, LIVER, MICROSOMES, BENZO[E]PYRENE AND TCDD, Method: STANDARD PLATE): inactive; negative | mutagenic call [2]: inactive; negative | mutagenic call (Test System: AMES SALMONELLA TYPHIMURIUM, Strain/Indicator: TA100, Metabolic Activation: NONE, Method: STANDARD PLATE): inactive; negative | mutagenic call (Test System: AMES SALMONELLA TYPHIMURIUM, Strain/Indicator: TA100, Metabolic Activation: RAT, LIVER, S-9, AROCLOR 1254, Method: PREINCUBATION): inactive; negative | mutagenic call (Test System: AMES SALMONELLA TYPHIMURIUM, Strain/Indicator: TA100, Metabolic Activation: RAT, LIVER, S-9, PCB, Method: STANDARD PLATE): inactive; negative | mutagenic call (Test System: AMES SALMONELLA TYPHIMURIUM, Strain/Indicator: TA1537, Metabolic Activation: RAT, LIVER, S-9, AROCLOR 1254, Method: STANDARD PLATE): active; positive | mutagenic call (Test System: CHINESE HAMSTER OVARY, Strain/Indicator: CHO (HGPRT)/6-THIOGUANINE, Metabolic Activation: NONE, Method: STANDARD PLATE): inactive; negative | mutagenic call (Test System: CHINESE HAMSTER OVARY, Strain/Indicator: CHO (HGPRT)/6-THIOGUANINE, Metabolic Activation: RAT, LIVER, S-9, AROCLOR 1254, Method: STANDARD PLATE): inactive; negative | mutagenic call (Test System: CHINESE HAMSTER OVARY, Strain/Indicator: CHO-K1-BH4 (HGPRT)/6-THIOGUANINE, Metabolic Activation: NONE, Method: SUSPENSION/PLATE): inactive; negative | mutagenic call (Test System: CHINESE HAMSTER OVARY, Strain/Indicator: CHO-K1-BH4 (HGPRT)/6-THIOGUANINE, Metabolic Activation: S-9, Method: SUSPENSION/PLATE): inactive; negative | mutagenic call (Test System: CHINESE HAMSTER OVARY, Strain/Indicator: CHO-K1-BH4 (HGPRT), Metabolic Activation: NONE, Method: SUSPENSION/PLATE): inactive; negative | mutagenic call (Test System: CHINESE HAMSTER OVARY, Strain/Indicator: CHO-K1-BH4 (HGPRT), Metabolic Activation: RAT, LIVER, S-9, AROCLOR, Method: SUSPENSION/PLATE): inactive; negative | mutagenic call (Test System: E. COLI, Strain/Indicator: WP2 UVRA, Metabolic Activation: HAMSTER, LIVER, S-9, AROCLOR 1254, Method: STANDARD PLATE): inactive; negative | mutagenic call (Test System: E. COLI, Strain/Indicator: WP2 UVRA, Metabolic Activation: HAMSTER, LIVER, S-9, Method: STANDARD PLATE): inactive; negative | mutagenic call (Test System: E. COLI, Strain/Indicator: WP2 UVRA, Metabolic Activation: MOUSE, LIVER, S-9, AROCLOR 1254, Method: STANDARD PLATE): inactive; negative | mutagenic call (Test System: E. COLI, Strain/Indicator: WP2 UVRA, Metabolic Activation: MOUSE, LIVER, S-9, Method: STANDARD PLATE): inactive; negative | mutagenic call (Test System: E. COLI, Strain/Indicator: WP2 UVRA, Metabolic Activation: NONE, Method: STANDARD PLATE): inactive; negative | mutagenic call (Test System: E. COLI, Strain/Indicator: WP2 UVRA, Metabolic Activation: RAT, LIVER, S-9, AROCLOR 1254, Method: STANDARD PLATE): inactive; negative | mutagenic call (Test System: E. COLI, Strain/Indicator: WP2 UVRA, Metabolic Activation: RAT, LIVER, S-9, Method: STANDARD PLATE): inactive; negative | mutagenic call (Test System: MOUSE LYMPHOMA, Strain/Indicator: L5178Y (TK+/TK-), Metabolic Activation: NONE, Method: SUSPENSION/PLATE): inactive; negative | mutagenic call (Test System: MOUSE LYMPHOMA, Strain/Indicator: L5178Y (TK+/TK-), Metabolic Activation: RAT, LIVER, S-9, AROCLOR 1254, Method: SUSPENSION/PLATE): active; positive | mutagenic call (Test System: MOUSE LYMPHOMA, Strain/Indicator: L5178Y (TK+/TK-), Metabolic Activation: S-9, Method: SUSPENSION/PLATE): active; positive | mutagenic call (Test System: UDS RAT HEPATOCYTES, Strain/Indicator: BROMODEOXYURIDINE INCORP, Metabolic Activation: NONE, Method: FLOW CYTOMETRIC ANALYSIS): inactive; negative | mutagenic call (Test System: UDS RAT HEPATOCYTES, Strain/Indicator: THY INCORP, Metabolic Activation: NONE, Method: AUTORADIOGRAPHY): inactive; negative | mutagenic call (Test System: UDS RODENT HEPATOCYTES, Strain/Indicator: THY INCORP, Metabolic Activation: NONE, Method: AUTORADIOGRAPHY): inactive; negative | mutagenic call (Test System: UDS, Strain/Indicator: HEPG2/THYMIDINE INCORPORATION, Metabolic Activation: NONE, Method: AUTORADIOGRAPHY): inactive; negative

O=C1C=CC(=O)C(Cl)=C1
mutagenic call [1]: inactive; negative | mutagenic call (Test System: AMES SALMONELLA TYPHIMURIUM, Strain/Indicator: TA98, Metabolic Activation: RAT, LIVER, S-9, PHENOBARBITAL AND 5,6-BENZOFLAVONE, Method: PREINCUBATION): inactive; negative | mutagenic call [2]: inactive; negative | mutagenic call (Test System: AMES SALMONELLA TYPHIMURIUM, Strain/Indicator: TA100, Metabolic Activation: RAT, LIVER, S-9, PHENOBARBITAL AND 5,6-BENZOFLAVONE, Method: PREINCUBATION): inactive; negative | mutagenic call (Test System: AMES SALMONELLA TYPHIMURIUM, Strain/Indicator: TA102, Metabolic Activation: NONE, Method: PREINCUBATION): inactive; negative | mutagenic call (Test System: AMES SALMONELLA TYPHIMURIUM, Strain/Indicator: TA102, Metabolic Activation: RAT, LIVER, S-9, PHENOBARBITAL AND 5,6-BENZOFLAVONE, Method: PREINCUBATION): inactive; negative | mutagenic call (Test System: AMES SALMONELLA TYPHIMURIUM, Strain/Indicator: TA104, Metabolic Activation: NONE, Method: PREINCUBATION): inactive; negative | mutagenic call (Test System: AMES SALMONELLA TYPHIMURIUM, Strain/Indicator: TA104, Metabolic Activation: RAT, LIVER, S-9, PHENOBARBITAL AND 5,6-BENZOFLAVONE, Method: PREINCUBATION): inactive; negative | mutagenic call (Test System: AMES SALMONELLA TYPHIMURIUM, Strain/Indicator: TA2637, Metabolic Activation: NONE, Method: PREINCUBATION): inactive; negative | mutagenic call (Test System: AMES SALMONELLA TYPHIMURIUM, Strain/Indicator: TA2637, Metabolic Activation: RAT, LIVER, S-9, PHENOBARBITAL AND 5,6-BENZOFLAVONE, Method: PREINCUBATION): inactive; negative
